Data on 24 compounds can be found in PubChem BioAssay AID330 (DTP/NCI, 2004).

This assay has as its system P388 leukemia ip, CD2F1 mice, survival T/C. Briefly: NCI In Vivo Anticancer Drug Screen. Data for tumor model P388 Leukemia (intraperitoneal) in CD2F1 (CDF1) mice. The note with it: endpoint: median survival time, higher = longer survival. The procedure, abridged:
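Mice carrying the transplanted tumor received test compound or vehicle. Survival was recorded in each group, and the value is the treated-group measurement divided by that of the vehicle-treated control group.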

[1] abbreviates: dose: 50.0 mg/kg/injection, schedule: Q01DX005 (ip), vehicle: saline with Tween-80.
The mark [2] stands for this setting: dose: 100.0 mg/kg/injection, schedule: Q01DX005 (ip), vehicle: saline with Tween-80.
The mark [3] stands for this setting: dose: 200.0 mg/kg/injection, schedule: Q01DX005 (ip), vehicle: saline with Tween-80.
Where [4] appears, read: dose: 50.0 mg/kg/injection, schedule: Q01DX009 (ip), vehicle: saline with Tween-80.
Where [5] appears, read: dose: 100.0 mg/kg/injection, schedule: Q01DX009 (ip), vehicle: saline with Tween-80.
Where [6] appears, read: dose: 200.0 mg/kg/injection, schedule: Q01DX009 (ip), vehicle: saline with Tween-80.
The mark [7] stands for this setting: dose: 60.0 mg/kg/injection, schedule: Q01DX005 (ip), vehicle: saline with Tween-80.
[8] abbreviates: dose: 120.0 mg/kg/injection, schedule: Q01DX005 (ip), vehicle: saline with Tween-80.
The mark [9] stands for this setting: dose: 50.0 mg/kg/injection, schedule: Q01DX009 (ip), vehicle: saline.
The mark [10] stands for this setting: dose: 100.0 mg/kg/injection, schedule: Q01DX009 (ip), vehicle: saline.
Where [11] appears, read: dose: 200.0 mg/kg/injection, schedule: Q01DX009 (ip), vehicle: saline.
The mark [12] stands for this setting: dose: 100.0 mg/kg/injection, schedule: Q04DX003 (ip), vehicle: Klucel (hydroxypropylcellulose) (HPC).
Where [13] appears, read: dose: 200.0 mg/kg/injection, schedule: Q04DX003 (ip), vehicle: Klucel (hydroxypropylcellulose) (HPC).
Where [14] appears, read: dose: 400.0 mg/kg/injection, schedule: Q04DX003 (ip), vehicle: Klucel (hydroxypropylcellulose) (HPC).
Where [15] appears, read: dose: 50.0 mg/kg/injection, schedule: Q01DX009 (ip), vehicle: Klucel (hydroxypropylcellulose) (HPC).
[16] abbreviates: dose: 100.0 mg/kg/injection, schedule: Q01DX009 (ip), vehicle: Klucel (hydroxypropylcellulose) (HPC).
The mark [17] stands for this setting: dose: 200.0 mg/kg/injection, schedule: Q01DX009 (ip), vehicle: Klucel (hydroxypropylcellulose) (HPC).
Setting [18] is: dose: 400.0 mg/kg/injection, schedule: Q01DX009 (ip), vehicle: Klucel (hydroxypropylcellulose) (HPC).

SMILES strings stand for the structures. Where “and” joins values, the source holds several entries; their conditions need not be identical. Equal values may be shown once. Inconclusive results and toxic doses are left out.

With `CC(C)=CCC(OC(=O)CC(C)C)C1=CC(=O)c2c(O)ccc(O)c2C1=O` (stereo unspecified), the T/C is 94 % of control (dose: 6.25 mg/kg/injection, schedule: Q01DX005 (ip), vehicle: saline with Tween-80); 103 % of control (dose: 12.5 mg/kg/injection, schedule: Q01DX005 (ip), vehicle: saline with Tween-80); 99 % of control (dose: 25.0 mg/kg/injection, schedule: Q01DX005 (ip), vehicle: saline with Tween-80).

For `CCOC(=O)C1=NCCS1`, the T/C reads like this: under setting [1], 98 % of control; under setting [2], 99 % of control; under setting [3], 99 % of control.

As for `O=[N+]([O-])CC(OCCCCCCCCCCO)C(Cl)(Cl)Cl` (stereo unspecified), the T/C runs as follows: under setting [4], 104 % of control; under setting [5], 100 % of control; under setting [6], 100 % of control.

As for `C=C(c1ccc(OC)cc1)C(CC)c1ccc(OC)cc1` (stereo unspecified), the T/C under setting [7] was 101 % of control and the T/C under setting [8] is 100 % of control.

Turning to `O=S(=O)(OC1CCC2CCC1O2)c1ccc(Br)cc1` (stereo unspecified), the T/C under setting [9] was 86 % of control, the T/C under setting [10] is 100 % of control and the T/C under setting [11] was 100 % of control.

For `O=NNc1ccc(Cl)cn1`, the T/C runs as follows: (dose: 3.12 mg/kg/injection, schedule: Q01DX009 (ip), vehicle: water) 123 % of control; (dose: 12.5 mg/kg/injection, schedule: Q01DX009 (ip), vehicle: water) 187 % of control.

`O=c1cc(-c2ccccc2)oc2c(O)c(O)cc(O)c12`: the T/C (dose: 50.0 mg/kg/injection, schedule: Q04DX003 (ip), vehicle: Klucel (hydroxypropylcellulose) (HPC)) is 105 % of control; the T/C under setting [12] was 104 % of control; the T/C under setting [13] was 100 % of control; the T/C under setting [14] is 92 % of control.

Regarding `COc1cc(=O)[nH]c(-c2ccccc2)c1OC`, the T/C is 99 % of control under setting [7]; 99 % of control under setting [8]; 99 % of control (dose: 240.0 mg/kg/injection, schedule: Q01DX005 (ip), vehicle: saline with Tween-80).

For the compound `O=c1ccc(=O)n(CCc2ccccn2)[nH]1`, the T/C reads like this: under setting [15], 112 % of control; under setting [16], 109 % of control; under setting [17], 108 % of control; under setting [18], 106 % of control.

As to `C=C(CCCC)CNCCOC(=O)c1ccc([N+](=O)[O-])cc1`, the T/C (dose: 12.5 mg/kg/injection, schedule: Q04DX003 (ip), vehicle: saline) is 104 % of control; the T/C (dose: 25.0 mg/kg/injection, schedule: Q04DX003 (ip), vehicle: saline) was 104 % of control; the T/C (dose: 50.0 mg/kg/injection, schedule: Q04DX003 (ip), vehicle: saline) is 104 % of control.

On to `C/C=C/C=C(/C=O)[C@@H](O)C(C)=O`, for which the T/C is, setting by setting: (dose: 2.0 mg/kg/injection, schedule: Q01DX009 (ip), vehicle: saline + alcohol) 121 % of control and 93 % of control; (dose: 4.0 mg/kg/injection, schedule: Q01DX009 (ip), vehicle: saline + alcohol) 101 % of control; (dose: 8.0 mg/kg/injection, schedule: Q01DX009 (ip), vehicle: saline + alcohol) 101 % of control; (dose: 16.0 mg/kg/injection, schedule: Q01DX009 (ip), vehicle: saline + alcohol) 111 % of control.

Turning to `COc1cc(C2CC(=O)N(c3ccc(C)cc3)C(=O)C2)cc(OC)c1OC`, the T/C by setting is: (dose: 25.0 mg/kg/injection, schedule: Q01DX005 (ip), vehicle: Klucel + Tween-80) 98 % of control; (dose: 50.0 mg/kg/injection, schedule: Q01DX005 (ip), vehicle: Klucel + Tween-80) 100 % of control and 105 % of control and 122 % of control; (dose: 50.0 mg/kg/injection, schedule: Q01DX009 (ip), vehicle: Klucel + Tween-80) 108 % of control; (dose: 100.0 mg/kg/injection, schedule: Q01DX005 (ip), vehicle: Klucel + Tween-80) 106 % of control and 110 % of control (2×); (dose: 114.0 mg/kg/injection, schedule: Q01DX009 (ip), vehicle: Klucel + Tween-80) 117 % of control; (dose: 175.0 mg/kg/injection, schedule: Q01DX009 (ip), vehicle: Klucel + Tween-80) 122 % of control. The T/C runs as follows: (dose: 200.0 mg/kg/injection, schedule: Q01DX005 (ip), vehicle: Klucel + Tween-80) 110 % of control and 114 % of control and 122 % of control; (dose: 264.0 mg/kg/injection, schedule: Q01DX009 (ip), vehicle: Klucel + Tween-80) 93 % of control; (dose: 400.0 mg/kg/injection, schedule: Q01DX009 (ip), vehicle: Klucel + Tween-80) 92 % of control.

For `CC(C)OC(=O)c1ccc(=O)oc1`, the T/C under setting [12] was 105 % of control, the T/C under setting [13] was 99 % of control and the T/C under setting [14] was 110 % of control.

Consider `CN(C(=O)C(Cl)Cl)c1ccc(-c2csc(-c3ccccc3)n2)cc1`, for which the T/C is 100 % of control under setting [12], 97 % of control under setting [13] and 91 % of control under setting [14].

For the compound `CCOC(=O)N1C(C)=CC=C/C1=C/C=C(C#N)C#N`, the T/C was 94 % of control (dose: 100.0 mg/kg/injection, schedule: Q01DX001 (ip), vehicle: saline with Tween-80); 90 % of control (dose: 200.0 mg/kg/injection, schedule: Q01DX001 (ip), vehicle: saline with Tween-80); 89 % of control (dose: 400.0 mg/kg/injection, schedule: Q01DX001 (ip), vehicle: saline with Tween-80).

Take `Cc1ccc2c(c1)CCCc1c-2nn(-c2ccccc2)c1-c1ccc(Cl)cc1`: the T/C under setting [1] is 86 % of control, the T/C under setting [2] is 92 % of control and the T/C under setting [3] was 90 % of control.

For the compound `Cc1ccc(N=C(Cl)Nc2ccc(C)cc2)cc1`, the T/C by setting is: under setting [4], 105 % of control; under setting [5], 108 % of control; under setting [6], 98 % of control.

With `CC(C)OC1CC(C)(O)Cc2cc3c(c(O)c21)C(=O)c1c(O)cc2c(c1C3=O)OC1OC2(C)C(O)C(N(C)C)C1O` (stereo unspecified), the T/C (dose: 2.0 mg/kg/injection, schedule: Q01DX009 (ip), vehicle: other) is 101 % of control; the T/C (dose: 4.0 mg/kg/injection, schedule: Q01DX009 (ip), vehicle: other) is 120 % of control; the T/C (dose: 8.0 mg/kg/injection, schedule: Q01DX009 (ip), vehicle: other) is 106 % of control; the T/C (dose: 16.0 mg/kg/injection, schedule: Q01DX009 (ip), vehicle: other) is 87 % of control.

Take `Cc1ccc(S(=O)(=O)OC(C#N)c2ccccc2)cc1` (stereo unspecified): the T/C runs as follows: under setting [15], 111 % of control; under setting [16], 102 % of control; under setting [17], 100 % of control; under setting [18], 106 % of control.

For the compound `Clc1ccc(/C=C/c2ccnnc2)cc1`, the T/C runs as follows: under setting [9], 106 % of control; under setting [10], 106 % of control; under setting [11], 91 % of control.

As to `O=C1CCC2CCCCC2N1` (stereo unspecified), the T/C reads like this: under setting [15], 94 % of control; under setting [16], 86 % of control.

On to `CC(=O)Nc1nc(Cl)c2ncn(C3CC(OC(=O)c4ccc(C)cc4)C(COC(=O)c4ccc(C)cc4)O3)c2n1` (stereo unspecified), for which the T/C runs as follows: (dose: 12.5 mg/kg/injection, schedule: Q01DX005 (ip), vehicle: Klucel (hydroxypropylcellulose) (HPC)) 97 % of control; (dose: 25.0 mg/kg/injection, schedule: Q01DX005 (ip), vehicle: Klucel (hydroxypropylcellulose) (HPC)) 90 % of control; (dose: 50.0 mg/kg/injection, schedule: Q01DX005 (ip), vehicle: Klucel (hydroxypropylcellulose) (HPC)) 97 % of control and 100 % of control; (dose: 100.0 mg/kg/injection, schedule: Q01DX005 (ip), vehicle: Klucel (hydroxypropylcellulose) (HPC)) 95 % of control and 98 % of control; (dose: 200.0 mg/kg/injection, schedule: Q01DX005 (ip), vehicle: Klucel (hydroxypropylcellulose) (HPC)) 97 % of control and 103 % of control.

Regarding `COc1cc(/C=N/NC(=O)C(=O)N/N=C/c2cc(OC)c(OC)c(OC)c2)cc(OC)c1OC`, the T/C under setting [15] was 89 % of control, the T/C under setting [16] was 95 % of control and the T/C under setting [17] is 93 % of control.

`CCC(=O)c1ccc(O)c(O)c1`: the T/C was 104 % of control under setting [4] and 105 % of control under setting [5].
